Assay results taken from US4925867A, “Hydrocarbon substituted pyrrolidinones, intermediates therefor, and anti-convulsant use thereof” (Merck Sharp & Dohme Ltd., priority 1988, dated 1990).

Key:
NMDA receptors = assay: Cortical slice studies: antagonism of responses to NMDA in rat cortical slice; assay type: cell-based; details: from righthand shift in the NMDA concentration-response curve, read-out: apparent equilibrium constant (Kb)
Protocol: The compounds useful in this invention potently and selectively block responses to NMDA in a brain slice from rat cortex, inhibit glycine binding to the strychnine-insensitive site present on the NMDA receptor, and block the potentiation of NMDA responses by glycine in cultured cortical neurones.
The effects of compounds of the invention on responses to NMDA were assessed using the rat cortical slice as described by Wong et al., Proc. Natl. Acad. Sci. USA, 1986, 83, 7104. The apparent equilibrium constant (Kb) was calculated from the righthand shift in the NMDA concentration-response curve produced by the compound under test.

NMDA-induced excitation = details: Evans et al., Brain Research, 1978, 148, 536-542; cited from earlier work

| Compound | Kb (NMDA receptors) [µM] | antagonism of NMDA-induced excitation (in words) (NMDA-induced excitation) |
| --- | --- | --- |
| C[C@H]1CN(O)C(=O)[C@H]1N (relative stereo) [Example 1, cis-3-Amino-1-hydroxy-4-methylpyrrolidin-2-one] | < 100 | – |
| C[C@@H]1CN(O)C(=O)[C@@H]1N [Example 2, (3R,4R)-3-Amino-1-hydroxy-4-methylpyrrolidin-2-one] | < 100 | – |
| NC1CCN(O)C1=O (stereo not drawn) [HA-966, 3-amino-1-hydroxypyrrolidin-2-one] | – | able to antagonise selectively NMDA-induced excitation |
